Assay results reported in patent publication US9422293B2 (priority 2006, dated 2016).
Where a name gives a salt, the structure may show the parent alone.

What follows are compounds tested against rat TRPV1 (Rattus norvegicus (Rat), UniProt O35433). Conditions: read-out: Rat IC50.
Chain of rat TRPV1 (O35433 whole entry): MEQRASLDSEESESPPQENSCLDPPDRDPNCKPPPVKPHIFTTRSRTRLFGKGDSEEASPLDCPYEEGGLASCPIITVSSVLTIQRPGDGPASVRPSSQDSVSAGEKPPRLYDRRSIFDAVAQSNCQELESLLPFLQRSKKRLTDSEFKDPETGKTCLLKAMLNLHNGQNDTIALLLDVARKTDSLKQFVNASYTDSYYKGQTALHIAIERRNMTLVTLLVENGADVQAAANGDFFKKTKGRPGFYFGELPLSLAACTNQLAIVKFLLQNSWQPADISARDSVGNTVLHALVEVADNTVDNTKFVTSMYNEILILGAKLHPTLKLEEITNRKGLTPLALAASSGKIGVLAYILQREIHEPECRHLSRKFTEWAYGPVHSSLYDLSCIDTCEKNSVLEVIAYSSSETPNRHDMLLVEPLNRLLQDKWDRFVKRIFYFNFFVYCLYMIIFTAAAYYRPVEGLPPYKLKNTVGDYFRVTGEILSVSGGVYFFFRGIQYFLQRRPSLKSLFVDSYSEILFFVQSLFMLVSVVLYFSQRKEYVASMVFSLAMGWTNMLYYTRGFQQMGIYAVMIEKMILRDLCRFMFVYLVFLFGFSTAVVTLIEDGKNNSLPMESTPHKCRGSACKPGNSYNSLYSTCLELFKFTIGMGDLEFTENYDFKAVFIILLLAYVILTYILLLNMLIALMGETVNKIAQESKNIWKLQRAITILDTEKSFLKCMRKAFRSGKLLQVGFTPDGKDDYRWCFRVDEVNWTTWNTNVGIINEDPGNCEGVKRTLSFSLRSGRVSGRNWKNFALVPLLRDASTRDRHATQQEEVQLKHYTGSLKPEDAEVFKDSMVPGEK

| SMILES | IC50 |
| --- | --- |
| FC(F)(F)c1ccc(Nc2nc(-c3cccs3)nc3c2CCN(c2ncccc2C(F)(F)F)CC3)cc1 [Example 149, 2-(2-Thienyl)-N-[4-(trifluoromethyl)phenyl]-7-[3-(trifluoromethyl)pyridin-2-yl]-6,7,8,9-tetrahydro-5H-pyrimido[4,5-d]azepin-4-amine] | 150 nM |
| CC(C)c1nc2c(c(Nc3ccc(C(F)(F)F)c(Cl)n3)n1)CCN(c1ncccc1C(F)(F)F)CC2 [Example 188, N-[6-Chloro-5-(trifluoromethyl)pyridin-2-yl]-2-(1-methylethyl)-7-[3-(trifluoromethyl)pyridin-2-yl]-6,7,8,9-tetrahydro-5H-pyrimido[4,5-d]azepin-4-amine hydrochloride salt] | 1590 nM |
| CN1CCC(C)(C)c2ccc(Nc3nc(SC4CCCCC4)nc4c3CCN(c3ncccc3C(F)(F)F)CC4)cc21 [Example 371, 2-(Cyclohexylsulfanyl)-7-[3-(trifluoromethyl)pyridin-2-yl]-N-(1,4,4-trimethyl-1,2,3,4-tetrahydroquinolin-7-yl)-6,7,8,9-tetrahydro-5H-pyrimido[4,5-d]azepin-4-amine] | > 6670 nM |
| CC(C)c1nc2c(c(Nc3ccc(C(F)(F)F)nc3)n1)CCN(c1ncccc1S(C)(=O)=O)CC2 [Example 282, 2-(1-Methylethyl)-7-[3-(methylsulfonyl)pyridin-2-yl]-N-[6-(trifluoromethyl)pyridin-3-yl]-6,7,8,9-tetrahydro-5H-pyrimido[4,5-d]azepin-4-amine] | 130 nM |
| FC(F)(F)c1ccc(Nc2nc(N3CCCC3)nc3c2CCN(c2ncccc2C(F)(F)F)CC3)cc1 [Example 106, [2-Pyrrolidin-1-yl-7-(3-trifluoromethyl-pyridin-2-yl)-6,7,8,9-tetrahydro-5H-pyrimido[4,5-d]azepin-4-yl]-(4-trifluoromethyl-phenyl)-amine] | 62 nM |
| CC(C)c1nc2c(c(Nc3ccc(C(F)(F)F)nc3)n1)CCN(c1ncccc1C(F)(F)F)CC2 [Example 23, [2-Isopropyl-7-(3-trifluoromethyl-pyridin-2-yl)-6,7,8,9-tetrahydro-5H-pyrimido[4,5-d]azepin-4-yl]-(6-trifluoromethyl-pyridin-3-yl)-amine] | 310 nM |
| CC(C)c1nc2c(c(Nc3ccc(C(F)(F)F)cc3)n1)CCN(c1ncccc1[N+](=O)[O-])CC2 [Example 88, [2-Isopropyl-7-(3-nitro-pyridin-2-yl)-6,7,8,9-tetrahydro-5H-pyrimido[4,5-d]azepin-4-yl]-(4-trifluoromethyl-phenyl)-amine] | 960 nM |
| Cc1cc(C(F)(F)F)ccc1Nc1nc(N(C)C2CCCCC2)nc2c1CCN(c1ncccc1C(F)(F)F)CC2 [Example 267, N^2-Cyclohexyl-N^2-methyl-N^4-[2-methyl-4-(trifluoromethyl)phenyl]-7-[3-(trifluoromethyl)pyridin-2-yl]-6,7,8,9-tetrahydro-5H-pyrimido[4,5-d]azepine-2,4-diamine] | 1870 nM |
| CC(C)c1nc2c(c(Nc3ccc([N+](=O)[O-])cc3)n1)CCN(c1ncccc1C(F)(F)F)CC2 [Example 136, 2-(1-Methylethyl)-N-(4-nitrophenyl)-7-[3-(trifluoromethyl)pyridin-2-yl]-6,7,8,9-tetrahydro-5H-pyrimido[4,5-d]azepin-4-amine] | 110 nM |
| CC(C)c1nc2c(c(Nc3ccc(S(=O)(=O)N(C)C)cc3)n1)CCN(c1ncccc1C(F)(F)F)CC2 [Example 154, N,N-Dimethyl-4-({2-(1-methylethyl)-7-[3-(trifluoromethyl)pyridin-2-yl]-6,7,8,9-tetrahydro-5H-pyrimido[4,5-d]azepin-4-yl}amino)benzenesulfonamide] | 1140 nM |
| CC(C)(C(=O)O)c1ccc(Nc2nc(N3CCCCC3)nc3c2CCN(c2ncccc2C(F)(F)F)CC3)cc1 [Example 186, 2-Methyl-2-[4-({2-piperidin-1-yl-7-[3-(trifluoromethyl)pyridin-2-yl]-6,7,8,9-tetrahydro-5H-pyrimido[4,5-d]azepin-4-yl}amino)phenyl]propanoic acid] | 140 nM |
| CC(C)(C)c1ccc(Nc2nc(-c3ccoc3)nc3c2CCN(c2ncccc2C(F)(F)F)CC3)cc1 [Example 147, N-[4-(1,1-Dimethylethyl)phenyl]-2-furan-3-yl-7-[3-(trifluoromethyl)pyridin-2-yl]-6,7,8,9-tetrahydro-5H-pyrimido[4,5-d]azepin-4-amine] | 110 nM |
| CC(Oc1nc2c(c(Nc3ccc(S(=O)(=O)N4CCCC4)cc3)n1)CCN(c1ncccc1C(F)(F)F)CC2)C1CCCCC1 (stereo not drawn) [Example 320, 2-[(1-Cyclohexylethyl)oxy]l-N-[4-(pyrrolidin-1-ylsulfonyl)phenyl]-7-[3-(trifluoromethyl)pyridin-2-yl]-6,7,8,9-tetrahydro-5H-pyrimido[4,5-d]azepin-4-amine] | 20 nM |
| CCS(=O)(=O)c1cccnc1N1CCc2nc(C(C)C)nc(Nc3ccc(C(C)(C)C)cc3)c2CC1 [Example 296, N-[4-(1,1-Dimethylethyl)phenyl]-7-[3-(ethylsulfonyl)pyridin-2-yl]-2-(1-methylethyl)-6,7,8,9-tetrahydro-5H-pyrimido[4,5-d]azepin-4-amine] | 120 nM |
| CN1CCCc2ccc(Nc3nc(OC4CCCCC4)nc4c3CCN(c3ncccc3C(F)(F)F)CC4)cc21 [Example 328, 2-(Cyclohexyloxy)-N-(1-methyl-1,2,3,4-tetrahydroquinolin-7-yl)-7-[3-(trifluoromethyl)pyridin-2-yl]-6,7,8,9-tetrahydro-5H-pyrimido[4,5-d]azepin-4-amine] | 250 nM |
| O=S(=O)(c1ccc(Nc2nc(Sc3ccccc3)nc3c2CCN(c2ncccc2C(F)(F)F)CC3)cc1)C(F)(F)F [Example 350, 2-(Phenylsulfanyl)-7-[3-(trifluoromethyl)pyridin-2-yl]-N-{4-[(trifluoromethyl)sulfonyl]phenyl}-6,7,8,9-tetrahydro-5H-pyrimido[4,5-d]azepin-4-amine] | 30 nM |
| O=S(=O)(c1ccc(Nc2nc(OC3CCCC3)nc3c2CCN(c2ncccc2C(F)(F)F)CC3)cc1)C(F)(F)F [Example 319, 2-(Cyclopentyloxy)-7-[3-(trifluoromethyl)pyridin-2-yl]-N-{4-[(trifluoromethyl)sulfonyl]phenyl}-6,7,8,9-tetrahydro-5H-pyrimido[4,5-d]azepin-4-amine] | 240 nM |
| FC(F)(F)c1ccc(Nc2nc(-c3ccsc3)nc3c2CCN(c2ncccc2C(F)(F)F)CC3)cc1 [Example 150, 2-(3-Thienyl)-N-[4-(trifluoromethyl)phenyl]-7-[3-(trifluoromethyl)pyridin-2-yl]-6,7,8,9-tetrahydro-5H-pyrimido[4,5-d]azepin-4-amine] | 200 nM |
| CC(C)c1nc2c(c(NC3CCC(C(C)(C)C)CC3)n1)CCN(c1ncccc1C(F)(F)F)CC2 (centres unmarked) [Example 122, N-[4-(1,1-Dimethylethyl)cyclohexyl]-2-(1-methylethyl)-7-[3-(trifluoromethyl)pyridin-2-yl]-6,7,8,9-tetrahydro-5H-pyrimido[4,5-d]azepin-4-amine] | 190 nM |
| FC(F)(F)c1ccc(Nc2nc(N3CCOCC3)nc3c2CCN(c2ncccc2C(F)(F)F)CC3)nc1 [Example 41, [2-Morpholin-4-yl-7-(3-trifluoromethyl-pyridin-2-yl)-6,7,8,9-tetrahydro-5H-pyrimido[4,5-d]azepin-4-yl]-(5-trifluoromethyl-pyridin-2-yl)-amine] | 49 nM |
